Assay results published in patent publication US9309242B2, “Substituted pyrido[2,3-b]pyrazines as FGFR kinase inhibitors” (priority 2011, dated 2016).

Tests used:
FGFR2 (h) = FGFR2 (h) (Homo sapiens, UniProt P21802); experiment: FGFR2 (enzymatic assay), TR-FRET; assay type: biochemical; details: enzymatic assay; read-out: FGFR 2 pIC50 (converted)
How it was run: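 Compound (1% DMSO final) was combined with FGFR2 (h), 150 ng/ml, plus 0.4 μM ATP and 500 nM biotin-Flt3 in Mn2+-containing HEPES buffer at pH 7.5.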

FGFR3 (h) = FGFR3 (h) (Homo sapiens, UniProt P22607); experiment: FGFR3 (enzymatic assay), TR-FRET; assay type: biochemical; details: read-out: FGFR 3 pIC50 (converted)
Chain of FGFR3 (h) (P22607 23-806): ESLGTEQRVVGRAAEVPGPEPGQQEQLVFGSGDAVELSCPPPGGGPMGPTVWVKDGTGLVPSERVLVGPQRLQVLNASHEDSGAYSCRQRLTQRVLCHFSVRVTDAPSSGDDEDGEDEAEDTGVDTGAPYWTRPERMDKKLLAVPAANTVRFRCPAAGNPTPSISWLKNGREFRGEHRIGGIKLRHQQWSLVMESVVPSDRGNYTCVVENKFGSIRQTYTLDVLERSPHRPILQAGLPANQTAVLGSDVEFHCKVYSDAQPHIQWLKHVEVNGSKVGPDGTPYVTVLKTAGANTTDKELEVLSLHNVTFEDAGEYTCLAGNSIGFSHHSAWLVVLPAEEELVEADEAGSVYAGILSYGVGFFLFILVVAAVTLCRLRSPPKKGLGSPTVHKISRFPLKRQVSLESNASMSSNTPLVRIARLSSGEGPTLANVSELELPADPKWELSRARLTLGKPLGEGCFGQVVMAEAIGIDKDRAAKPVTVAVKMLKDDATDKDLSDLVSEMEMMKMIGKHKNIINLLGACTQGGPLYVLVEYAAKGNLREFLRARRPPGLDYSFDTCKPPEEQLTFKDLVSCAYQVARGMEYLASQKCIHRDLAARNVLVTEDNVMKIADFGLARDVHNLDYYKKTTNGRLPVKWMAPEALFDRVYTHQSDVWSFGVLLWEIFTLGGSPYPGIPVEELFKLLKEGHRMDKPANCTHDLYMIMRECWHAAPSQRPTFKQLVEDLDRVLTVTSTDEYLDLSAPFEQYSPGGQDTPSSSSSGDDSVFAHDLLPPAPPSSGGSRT
Excerpt: Time-Resolved Fluorescence Resonance Energy Transfer (TR-FRET) signal (ex340 nm.

[1] = test system: Ba/F3-KDR-transfected cells; experiment: Ba/F3-KDR (plus IL3) cellular proliferation assay, counterscreen with 10 ng/ml murine IL3; assay type: cell-based; details: plus IL3 (10 ng/ml murine IL3, counterscreen); read-out: BAF3-KDR (PLUS IL3) pIC50 (converted)
How it was run: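 Proliferation is measured as Alamar Blue relative fluorescence units following 24 h compound treatment of 20000 cells per well in 10% FBS medium. The IL3-supplemented run serves as a counterscreen under the same conditions.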

Chain of FGFR2 (h) (P21802 22-821): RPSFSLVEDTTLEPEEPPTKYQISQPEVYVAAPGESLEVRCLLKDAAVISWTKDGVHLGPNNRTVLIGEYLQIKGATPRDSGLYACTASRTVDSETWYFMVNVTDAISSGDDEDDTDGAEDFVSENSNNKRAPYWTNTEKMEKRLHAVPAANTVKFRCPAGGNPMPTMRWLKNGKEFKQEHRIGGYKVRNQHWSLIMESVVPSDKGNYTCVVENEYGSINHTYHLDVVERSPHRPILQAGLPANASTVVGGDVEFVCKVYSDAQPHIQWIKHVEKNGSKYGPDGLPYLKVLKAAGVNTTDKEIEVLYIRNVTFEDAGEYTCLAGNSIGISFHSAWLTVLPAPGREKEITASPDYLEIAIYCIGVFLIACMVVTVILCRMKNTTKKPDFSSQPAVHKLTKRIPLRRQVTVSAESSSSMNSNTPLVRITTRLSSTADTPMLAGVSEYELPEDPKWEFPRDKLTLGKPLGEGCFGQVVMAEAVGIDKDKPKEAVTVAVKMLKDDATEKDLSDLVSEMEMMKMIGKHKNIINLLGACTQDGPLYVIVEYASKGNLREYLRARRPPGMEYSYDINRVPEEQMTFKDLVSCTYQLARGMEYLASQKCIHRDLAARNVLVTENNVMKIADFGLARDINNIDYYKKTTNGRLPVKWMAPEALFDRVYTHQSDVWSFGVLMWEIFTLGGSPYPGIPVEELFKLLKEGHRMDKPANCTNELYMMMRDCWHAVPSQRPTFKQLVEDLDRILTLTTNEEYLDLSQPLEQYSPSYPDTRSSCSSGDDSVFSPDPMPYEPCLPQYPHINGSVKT

Which results are given for COc1cc(OC)c(F)c(/N=c2\ccc3ncc(-c4cnn(C)c4)nc3n2CC2CCOC2)c1F (stereo not drawn) [Compound 154]?
IC50 (FGFR2 (h)): 1.05 nM; IC50 (FGFR3 (h)): 0.676 nM; melting point: 226 °C; IC50 [1]: > 10000 nM

What does the source list for COc1cc(OC)c(F)c(N(CC#N)c2ccc3ncc(-c4cnn(C)c4)nc3n2)c1F [Compound 173]?
IC50 (FGFR2 (h)): 1.1 nM; IC50 (FGFR3 (h)): 0.437 nM; melting point: 250 °C; IC50 [1]: > 10000 nM

Which results are given for COc1cc(OC)c(F)c(N(CC(=O)NCCO)c2ccc3ncc(-c4cnn(C)c4)nc3n2)c1 [Compound 230]?
IC50 (FGFR2 (h)): 7.41 nM; IC50 (FGFR3 (h)): 7.94 nM; melting point: 258 °C; IC50 [1]: > 10000 nM

What does the source list for COc1cc(OC)cc(N(Cc2n[nH]c(=O)o2)c2ccc3ncc(-c4cnn(C)c4)nc3n2)c1 [Compound 229]?
IC50 (FGFR2 (h)): 5.62 nM; IC50 (FGFR3 (h)): 4.07 nM; melting point: 232 °C; IC50 [1]: > 10000 nM

Which IC50 (FGFR2 (h)) does the source give for COc1cc(/N=c2\ccc3ncc(-c4cnn(CC(C)(C)O)c4)nc3n2CC(C)(C)O)c(F)c(OC)c1 (single isomer, unassigned) [Compound 207] here?
The IC50 was 2.51 nM.

And the IC50 (FGFR3 (h))?
The IC50 was 1.17 nM.

What about the melting point of the same molecule?
The melting point was 154 °C.

What about the IC50 [1] of the same molecule?
Its IC50 is greater than 10000 nM.

Which IC50 (FGFR2 (h)) does the source give for COc1cc(OC)c(F)c(N(CC2CCC(=O)N2CCO)c2ccc3ncc(-c4cnn(C)c4)nc3n2)c1 (single isomer, unassigned) [Compound 218] here?
The IC50 was 5.5 nM.

And the IC50 (FGFR3 (h))?
The IC50 was 4.17 nM.

What about the melting point of the same molecule?
The melting point was 130 °C.

What about the IC50 [1] of the same molecule?
The IC50 was greater than 10000 nM.

What does the source list for COc1cc(OC)cc(N(Cc2nnc(N)o2)c2ccc3ncc(-c4cnn(C)c4)nc3n2)c1 [Compound 188]?
IC50 (FGFR2 (h)): 1.35 nM; IC50 (FGFR3 (h)): 0.933 nM; melting point: 246 °C; IC50 [1]: > 10000 nM

For COc1cc(/N=c2\ccc3ncc(-c4cnn(C)c4)nc3n2CC2CCOC2)c(F)c(OC)c1 (single isomer, unassigned) [Compound 169], which IC50 (FGFR2 (h)) is on record?
Its IC50 is 1.62 nM.

And the IC50 (FGFR3 (h))?
The IC50 was 1.02 nM.

And the melting point?
Its melting point is 80 °C.

And the IC50 [1]?
The IC50 was greater than 10000 nM.

For COc1cc(OC)cc(N(Cc2nnco2)c2ccc3ncc(-c4cnn(C)c4)nc3n2)c1 [Compound 217], which IC50 (FGFR2 (h)) is on record?
Its IC50 is 5.89 nM.

What about the IC50 (FGFR3 (h)) of the same molecule?
The IC50 was 3.89 nM.

What about the melting point of the same molecule?
Its melting point is 240 °C.

And the IC50 [1]?
Its IC50 is greater than 10000 nM.

Which IC50 (FGFR2 (h)) does the source give for COc1cc(OC)c(F)c(N(CCNC2COC2)c2ccc3ncc(-c4cnn(C)c4)nc3n2)c1F (single isomer, unassigned) [Compound 162] here?
Its IC50 is 2.19 nM.

What about the IC50 (FGFR3 (h)) of the same molecule?
The IC50 was 1.41 nM.

And the melting point?
The melting point was 183 °C.

And the IC50 [1]?
The IC50 was greater than 10000 nM.

What does the source list for COc1cc(OC)cc(N(Cc2noc(C)n2)c2ccc3ncc(-c4cnn(C)c4)nc3n2)c1 [Compound 186]?
IC50 (FGFR2 (h)): 2.57 nM; IC50 (FGFR3 (h)): 2.69 nM; melting point: 177 °C; IC50 [1]: > 10000 nM

With COc1cc(OC)c(F)c(N(CCO)c2ccc3ncc(-c4cnn(CCO)c4)nc3n2)c1 [Compound 233] as the molecule, how does the IC50 (FGFR2 (h)) read?
The IC50 was 1.7 nM.

And the IC50 (FGFR3 (h))?
The IC50 was 0.776 nM.

What about the melting point of the same molecule?
The melting point was 194 °C.

What about the IC50 [1] of the same molecule?
The IC50 was greater than 10000 nM.

Which IC50 (FGFR2 (h)) does the source give for COc1cc(OC)c(F)c(/N=c2\ccc3ncc(-c4cnn(C)c4)nc3n2CCN(C2COC2)C2COC2)c1F [Compound 164] here?
Its IC50 is 1.82 nM.

What about the IC50 (FGFR3 (h)) of the same molecule?
Its IC50 is 0.933 nM.

What about the melting point of the same molecule?
Its melting point is 218 °C.

And the IC50 [1]?
The IC50 was greater than 10000 nM.

Which results are given for COc1cc(OC)c(F)c(N(CC2CCC(=O)N2CCO)c2ccc3ncc(-c4cnn(C)c4)nc3n2)c1 (stereo not drawn) [Compound 194]?
IC50 (FGFR2 (h)): 12 nM; IC50 (FGFR3 (h)): 8.51 nM; melting point: 102 °C; IC50 [1]: > 10000 nM

With COc1cc(OC)c(F)c(N(CC(=O)O)c2ccc3ncc(-c4cnn(C)c4)nc3n2)c1 [Compound 231] as the molecule, how does the IC50 (FGFR2 (h)) read?
The IC50 was 6.31 nM.

What about the IC50 (FGFR3 (h)) of the same molecule?
The IC50 was 3.98 nM.

And the melting point?
The melting point was greater than 260 °C.

And the IC50 [1]?
The IC50 was greater than 10000 nM.

For COc1cc(OC)cc(N(CCN2CCOCC2)c2ccc3ncc(-c4cnn(C)c4)nc3n2)c1 [Compound 146], which IC50 (FGFR2 (h)) is on record?
Its IC50 is 4.68 nM.

And the IC50 (FGFR3 (h))?
Its IC50 is 4.9 nM.

And the IC50 [1]?
Its IC50 is greater than 10000 nM.

With COc1cc(/N=c2\ccc3ncc(-c4cnn(C)c4)nc3n2Cc2cc(C)no2)c(F)c(OC)c1 [Compound 184] as the molecule, how does the IC50 (FGFR2 (h)) read?
Its IC50 is 2.19 nM.

And the IC50 (FGFR3 (h))?
The IC50 was 1.35 nM.

And the IC50 [1]?
The IC50 was greater than 10000 nM.

With COc1cc(OC)c(F)c(N(CC2CCC(=O)N2C)c2ccc3ncc(-c4cnn(C)c4)nc3n2)c1 (stereo not drawn) [Compound 159] as the molecule, how does the IC50 (FGFR2 (h)) read?
The IC50 was 6.61 nM.

What about the IC50 (FGFR3 (h)) of the same molecule?
Its IC50 is 5.89 nM.

What about the IC50 [1] of the same molecule?
The IC50 was greater than 10000 nM.

With COc1cc(/N=c2\ccc3ncc(-c4cnn(C)c4)nc3n2CC2CCC(=O)N2CCO)c(F)c(OC)c1 (single isomer, unassigned) [Compound 219] as the molecule, how does the IC50 (FGFR2 (h)) read?
Its IC50 is 2.24 nM.

What about the IC50 (FGFR3 (h)) of the same molecule?
Its IC50 is 1.29 nM.

And the IC50 [1]?
The IC50 was greater than 10000 nM.

Which results are given for COc1cc(OC)cc(N(Cc2nc(OC)cc(OC)n2)c2ccc3ncc(-c4cnn(C)c4)nc3n2)c1 [Compound 174]?
IC50 (FGFR2 (h)): 6.92 nM; IC50 (FGFR3 (h)): 36.3 nM; IC50 [1]: > 10000 nM

With CCOCc1c[nH]c(CN(c2ccc3ncc(-c4cnn(C)c4)nc3n2)c2cc(OC)cc(OC)c2F)n1 [Compound 206] as the molecule, how does the IC50 (FGFR2 (h)) read?
Its IC50 is 4.17 nM.

And the IC50 (FGFR3 (h))?
Its IC50 is 2.51 nM.

What about the IC50 [1] of the same molecule?
Its IC50 is greater than 10000 nM.

For COc1cc(OC)c(F)c(N(Cc2ncc[nH]2)c2ccc3ncc(-c4ccncc4)nc3n2)c1 [Compound 211], which IC50 (FGFR2 (h)) is on record?
Its IC50 is roughly 2.34 nM.

And the IC50 (FGFR3 (h))?
Its IC50 is 1.51 nM.

What about the IC50 [1] of the same molecule?
Its IC50 is greater than 10000 nM.

What does the source list for COc1cc(OC)c(F)c(N(CCN2CCCC2=O)c2ccc3ncc(-c4cnn(C)c4)nc3n2)c1 [Compound 157]?
IC50 (FGFR2 (h)): 6.31 nM; IC50 (FGFR3 (h)): 5.62 nM; IC50 [1]: > 10000 nM

With CCn1cc(-c2cnc3ccc(N(Cc4ncc[nH]4)c4cc(OC)cc(OC)c4F)nc3n2)cn1 [Compound 223] as the molecule, how does the IC50 (FGFR2 (h)) read?
Its IC50 is 1.58 nM.

What about the IC50 (FGFR3 (h)) of the same molecule?
The IC50 was 1.23 nM.

And the IC50 [1]?
The IC50 was greater than 10000 nM.

For COc1cc(OC)cc(N(Cc2ncc[nH]2)c2ccc3ncc(-c4ccccc4)nc3n2)c1 [Compound 152], which IC50 (FGFR2 (h)) is on record?
Its IC50 is 1.48 nM.

And the IC50 (FGFR3 (h))?
Its IC50 is 1.15 nM.

And the IC50 [1]?
Its IC50 is greater than 10000 nM.

Which IC50 (FGFR2 (h)) does the source give for COc1cc(OC)cc(N(CCN2CCCC2=O)c2ccc3ncc(-c4cnn(C)c4)nc3n2)c1 [Compound 151] here?
The IC50 was 15.1 nM.

And the IC50 (FGFR3 (h))?
Its IC50 is 10.7 nM.

What about the IC50 [1] of the same molecule?
Its IC50 is greater than 10000 nM.

For COc1cc(/N=c2\ccc3ncc(-c4cnn(C)c4)nc3n2CC2CCC(=O)N2C)c(F)c(OC)c1 (stereo not drawn) [Compound 158], which IC50 (FGFR2 (h)) is on record?
The IC50 was 1.86 nM.

What about the IC50 (FGFR3 (h)) of the same molecule?
The IC50 was 1.29 nM.

And the IC50 [1]?
Its IC50 is greater than 10000 nM.

Which results are given for COc1cc(OC)c(F)c(N(Cc2cc(C)on2)c2ccc3ncc(-c4cnn(C)c4)nc3n2)c1 [Compound 180]?
IC50 (FGFR2 (h)): 1.62 nM; IC50 (FGFR3 (h)): 1.07 nM; IC50 [1]: > 10000 nM

For COc1cc(OC)c(F)c(N(Cc2ncc[nH]2)c2ccc3ncc(-c4cnn(CC(C)(C)O)c4)nc3n2)c1 [Compound 240], which IC50 (FGFR2 (h)) is on record?
The IC50 was 2.57 nM.

And the IC50 (FGFR3 (h))?
Its IC50 is 1.82 nM.

What about the IC50 [1] of the same molecule?
The IC50 was greater than 10000 nM.

For COc1cc(OC)c(F)c(N(Cc2cc(C)no2)c2ccc3ncc(-c4cnn(C)c4)nc3n2)c1 [Compound 185], which IC50 (FGFR2 (h)) is on record?
Its IC50 is 1.51 nM.

And the IC50 (FGFR3 (h))?
Its IC50 is 0.912 nM.

And the IC50 [1]?
The IC50 was greater than 10000 nM.
